Experimental data as given in ChEMBL document CHEMBL1201862, “PubChem BioAssay data set” (2004).
Active and inactive are the calls of the source.

Experiments:
Cytochrome P450 2C19 = Cytochrome P450 2C19 (Homo sapiens, UniProt P33261); test: Cytochrome panel assay with activity outcomes. Panel member name: p450-cyp2c19 Compounds with AC50 equal or less than 10 uM are considered active; assay type: functional
Cytochrome P450 2D6 = Cytochrome P450 2D6 (Homo sapiens, UniProt P10635);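 note: CYP2D6 member of a cytochrome P450 panel assay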
[1] = Luminescence Cell-Based Dose Retest to Confirm Inhibitors of Cancer Stem Cells. [Related pubchem assays (depositor defined):AID2717, AID2721]; assay type: functional; settings: Homo sapiens
[2] = viability loss of HMLE_sh_eGFP cells – cell-based, luminescence, counter-screen for HMLE_sh_ECad selective toxicity project, dose response (AID 463074); assay type: functional, Homo sapiens;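 note: HMLE human mammary epithelial cells expressing control shRNA against eGFP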
[3] = biological target: T1, Mannose-6-phosphate isomerase (Homo sapiens, UniProt P34949); test: phosphomannose isomerase inhibition – biochemical, fluorescence intensity, confirmation (AID 1535)
T1 sequence (P34949 whole entry): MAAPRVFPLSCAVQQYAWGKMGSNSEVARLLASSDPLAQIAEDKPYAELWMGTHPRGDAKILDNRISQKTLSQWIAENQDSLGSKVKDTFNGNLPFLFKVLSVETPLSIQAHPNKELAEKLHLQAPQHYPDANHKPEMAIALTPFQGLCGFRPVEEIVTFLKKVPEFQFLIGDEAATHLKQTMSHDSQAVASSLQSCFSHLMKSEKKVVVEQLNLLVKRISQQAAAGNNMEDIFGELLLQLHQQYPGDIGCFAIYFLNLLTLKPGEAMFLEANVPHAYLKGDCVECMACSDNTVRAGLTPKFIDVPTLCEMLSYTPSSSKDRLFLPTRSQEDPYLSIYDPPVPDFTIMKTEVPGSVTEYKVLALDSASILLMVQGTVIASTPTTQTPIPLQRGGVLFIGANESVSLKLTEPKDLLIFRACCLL

Phosphomannomutase 2 = Phosphomannomutase 2 (Homo sapiens, UniProt O15305); test: Counter screen SAR assay for PMM2 inhibitors via a fluorescence intensity assay. [Related pubchem assays (depositor defined):AID1545, AID1574]
cells [4] = assay type: functional, cell-based
cells [5] = assay type: functional, cell-based; remark: listed apart in the source
Cysteine protease ATG4B [6] = biological target: T2, Cysteine protease ATG4B (Homo sapiens, UniProt Q9Y4P1); assay type: functional;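 note: Fluorescence-based dose-response confirmation assay measuring inhibition of ATG4B activity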
T2 sequence (Q9Y4P1 whole entry): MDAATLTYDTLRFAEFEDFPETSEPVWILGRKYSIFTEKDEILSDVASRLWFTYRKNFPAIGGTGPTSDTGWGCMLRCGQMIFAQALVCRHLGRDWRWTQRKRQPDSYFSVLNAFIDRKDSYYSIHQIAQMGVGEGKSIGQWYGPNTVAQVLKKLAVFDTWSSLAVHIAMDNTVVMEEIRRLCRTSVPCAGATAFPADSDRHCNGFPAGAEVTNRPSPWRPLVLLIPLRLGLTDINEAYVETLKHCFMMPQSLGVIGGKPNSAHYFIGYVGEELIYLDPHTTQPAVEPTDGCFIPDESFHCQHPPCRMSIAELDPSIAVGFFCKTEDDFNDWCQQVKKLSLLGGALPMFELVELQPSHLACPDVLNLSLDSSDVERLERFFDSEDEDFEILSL

Phospholipase A2 [7] = biological target: T3, Phospholipase A2 (Homo sapiens, UniProt P04054); test: phospholipase A2 activity inhibition – biochemical, set 2, counter-screen for ATG4B inhibitor project, dose response (AID 588586); assay type: functional
Phospholipase A2 [8] = biological target: T3, Phospholipase A2; assay type: functional
Cysteine protease ATG4B [9] = biological target: T2, Cysteine protease ATG4B; test: autophagin-1 cysteine protease inhibition – biochemical, fluorescence, set 2, dose response (AID 588584); assay type: functional
[10] = biological target: T4, Apoptotic protease-activating factor 1 (Homo sapiens, UniProt O14727); test: activation of Apaf-1 mediated apoptosis – fluorescent, uHTS hits, dose response (AID 588554); assay type: functional
T4 sequence (O14727 whole entry): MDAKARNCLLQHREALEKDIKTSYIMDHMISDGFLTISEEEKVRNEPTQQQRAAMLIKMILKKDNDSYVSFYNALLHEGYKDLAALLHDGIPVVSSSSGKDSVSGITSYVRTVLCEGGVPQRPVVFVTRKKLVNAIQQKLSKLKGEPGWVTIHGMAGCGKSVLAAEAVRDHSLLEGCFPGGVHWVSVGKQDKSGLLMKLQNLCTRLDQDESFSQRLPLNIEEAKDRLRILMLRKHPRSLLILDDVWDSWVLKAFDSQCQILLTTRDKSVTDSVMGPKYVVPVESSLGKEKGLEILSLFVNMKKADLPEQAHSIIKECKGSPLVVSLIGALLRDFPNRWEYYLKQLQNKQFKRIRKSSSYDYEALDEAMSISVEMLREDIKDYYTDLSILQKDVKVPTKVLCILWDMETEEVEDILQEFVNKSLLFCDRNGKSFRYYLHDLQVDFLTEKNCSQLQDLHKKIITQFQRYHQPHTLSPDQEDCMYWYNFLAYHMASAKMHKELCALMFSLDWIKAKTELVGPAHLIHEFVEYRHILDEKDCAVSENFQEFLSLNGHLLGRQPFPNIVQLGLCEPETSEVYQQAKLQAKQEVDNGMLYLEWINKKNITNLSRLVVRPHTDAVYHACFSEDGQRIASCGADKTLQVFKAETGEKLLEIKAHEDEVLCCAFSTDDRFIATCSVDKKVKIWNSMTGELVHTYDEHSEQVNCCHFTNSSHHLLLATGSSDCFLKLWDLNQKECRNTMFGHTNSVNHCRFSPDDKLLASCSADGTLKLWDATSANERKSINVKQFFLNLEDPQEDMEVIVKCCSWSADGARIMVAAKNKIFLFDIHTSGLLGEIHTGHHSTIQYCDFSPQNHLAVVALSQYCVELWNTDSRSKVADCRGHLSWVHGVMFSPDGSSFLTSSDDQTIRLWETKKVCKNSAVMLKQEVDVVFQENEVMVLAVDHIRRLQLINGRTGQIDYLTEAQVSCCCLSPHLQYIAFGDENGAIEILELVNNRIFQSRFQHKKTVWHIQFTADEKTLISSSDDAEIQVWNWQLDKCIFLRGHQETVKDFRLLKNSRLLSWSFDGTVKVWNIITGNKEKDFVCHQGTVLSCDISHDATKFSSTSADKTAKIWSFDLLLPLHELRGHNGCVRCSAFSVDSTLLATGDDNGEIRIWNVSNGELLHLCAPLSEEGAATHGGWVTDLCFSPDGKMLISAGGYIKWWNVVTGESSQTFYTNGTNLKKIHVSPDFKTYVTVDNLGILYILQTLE

Cytochrome P450 1A2 = biological target: T5, Cytochrome P450 1A2 (Homo sapiens, UniProt P05177);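 note: PubChem cytochrome P450 panel assay, CYP1A2 panel member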
T5 sequence (P05177 whole entry): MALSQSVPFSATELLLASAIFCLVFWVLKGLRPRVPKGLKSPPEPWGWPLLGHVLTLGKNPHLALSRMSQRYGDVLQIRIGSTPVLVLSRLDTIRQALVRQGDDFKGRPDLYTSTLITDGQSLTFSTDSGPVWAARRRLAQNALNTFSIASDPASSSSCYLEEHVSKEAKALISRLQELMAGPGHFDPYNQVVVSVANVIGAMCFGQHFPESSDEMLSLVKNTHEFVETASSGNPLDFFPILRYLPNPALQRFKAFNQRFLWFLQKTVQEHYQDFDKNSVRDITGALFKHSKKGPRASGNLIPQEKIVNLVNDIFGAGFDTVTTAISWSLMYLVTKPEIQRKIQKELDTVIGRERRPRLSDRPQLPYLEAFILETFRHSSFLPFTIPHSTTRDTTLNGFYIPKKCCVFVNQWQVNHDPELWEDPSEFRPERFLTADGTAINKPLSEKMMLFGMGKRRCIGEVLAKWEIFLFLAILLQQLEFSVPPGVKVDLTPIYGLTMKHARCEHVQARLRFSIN

Exodeoxyribonuclease V = Exodeoxyribonuclease V (Escherichia coli (strain K12), UniProt P04993+P07648+P08394); test: RecBCD inhibition via phage-restricted bacterial growth – absorbance, V66 E. coli, mutant T4 phage, counter-screen for AddAB inhibitor project, dose response (AID 492957); assay type: functional, cell-based, Escherichia coli str. K-12 substr. MG1655
[11] = Counterscreen for AddAB inhibitors: absorbance-based bacterial cell-based high throughput dose response assay for inhibitors of bacterial viability. [Related pubchem assays (depositor defined):AID435030, AID449728, AID449731, AID488942, AID488955, AID488956]; assay type: functional
Large T antigen = Large T antigen (Simian virus 40, UniProt P03070); assay type: functional, Betapolyomavirus macacae;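 note: Confirmatory-stage PubChem screen for compounds that inhibit SV40 T antigen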
[12] = biological target: Lysine-specific demethylase 4C (Homo sapiens, UniProt Q9H3R0); test: inhibition of JMJD2C H3K9me3 demethylation – biochemical, DELFIA europium, cherry-picked samples, dose response (AID 488835); assay type: functional
Genome polyprotein = Genome polyprotein (dengue virus type 2, UniProt P29990); test: flavivirus cap methylation enzyme inhibition – biochemical, confirmation dose response, primary screen (AID 588689); assay type: functional
[13] = biological target: T6, Polyadenylate-binding protein 1 (Homo sapiens, UniProt P11940); test: MLLE binding blockers, Cy5 peptide tracer – biochemical, fluorescence polarization, Cy5-PAM2 peptide, secondary, miRNA deadenylation inhibitor project, dose response (AID 602260); assay type: functional; settings: read-out: IC50_Mean
[14] = biological target: T6, Polyadenylate-binding protein 1; test: MLLE domain peptide-binding blockers, IC50 – biochemical, fluorescence polarization, FITC-PAM2 peptide, dose response (AID 602259); assay type: functional; settings: read-out: IC50_Mean
[15] = biological target: Intestinal-type alkaline phosphatase (Mus musculus, UniProt P24822); test: PubChem AID 488874; assay type: functional
[16] = biological target: T7, Intestinal-type alkaline phosphatase (Homo sapiens, UniProt P09923); test: inhibition of human intestinal alkaline phosphatase – biochemical, luminescent, uHTS hits, set 2, dose response (AID 488793); assay type: functional
[17] = biological target: T7, Intestinal-type alkaline phosphatase; test: Dose Response confirmation of uHTS hits from a small molecule inhibitors of human intestinal alkaline phosphatase via a luminescent assay. [Related pubchem assays (depositor defined):AID2544, AID2574]; assay type: functional
[18] = biological target: T8, Alkaline phosphatase, tissue-nonspecific isozyme (Homo sapiens, UniProt P05186); test: inhibition of tissue-nonspecific alkaline phosphatase – biochemical, dose response (AID 488882); assay type: functional
T8 sequence (P05186 whole entry): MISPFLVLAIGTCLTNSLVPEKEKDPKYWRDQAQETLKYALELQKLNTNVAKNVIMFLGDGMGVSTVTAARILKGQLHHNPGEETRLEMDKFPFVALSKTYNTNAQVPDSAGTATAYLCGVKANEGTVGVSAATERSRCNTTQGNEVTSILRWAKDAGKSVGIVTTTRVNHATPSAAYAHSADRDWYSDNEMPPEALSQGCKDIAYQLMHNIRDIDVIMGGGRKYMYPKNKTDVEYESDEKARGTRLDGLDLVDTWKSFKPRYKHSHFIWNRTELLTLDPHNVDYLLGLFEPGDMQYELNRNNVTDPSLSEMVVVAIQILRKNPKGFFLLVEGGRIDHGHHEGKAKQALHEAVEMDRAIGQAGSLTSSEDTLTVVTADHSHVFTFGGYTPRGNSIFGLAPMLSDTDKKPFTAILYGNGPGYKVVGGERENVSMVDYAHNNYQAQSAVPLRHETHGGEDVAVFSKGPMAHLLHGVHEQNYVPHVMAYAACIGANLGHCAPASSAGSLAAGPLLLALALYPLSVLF

Keap1/Nrf2 = Keap1/Nrf2 (Homo sapiens, UniProt Q14145); test: disruptors of Keap1 binding to Nrf2 peptide – biochemical, fluorescence polarization, cherry-picked samples, dose response (AID 588683)
Chain of Keap1/Nrf2 (Q16236 whole entry): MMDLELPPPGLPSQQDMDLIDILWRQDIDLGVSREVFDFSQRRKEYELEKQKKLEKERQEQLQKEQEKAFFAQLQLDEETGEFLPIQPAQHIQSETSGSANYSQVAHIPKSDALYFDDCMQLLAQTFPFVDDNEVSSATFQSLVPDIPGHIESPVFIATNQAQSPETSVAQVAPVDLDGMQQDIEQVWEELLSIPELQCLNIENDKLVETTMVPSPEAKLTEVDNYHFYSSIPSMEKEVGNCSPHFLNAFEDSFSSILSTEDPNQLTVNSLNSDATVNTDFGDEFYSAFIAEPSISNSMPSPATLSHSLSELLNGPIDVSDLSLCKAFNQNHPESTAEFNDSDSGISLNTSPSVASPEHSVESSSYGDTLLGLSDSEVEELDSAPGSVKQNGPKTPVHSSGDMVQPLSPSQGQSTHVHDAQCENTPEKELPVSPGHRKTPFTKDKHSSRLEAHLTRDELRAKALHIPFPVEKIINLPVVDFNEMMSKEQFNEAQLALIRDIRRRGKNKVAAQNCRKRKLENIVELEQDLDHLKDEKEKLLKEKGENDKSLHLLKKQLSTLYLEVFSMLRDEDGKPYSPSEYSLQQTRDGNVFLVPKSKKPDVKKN
Chain of Keap1/Nrf2 (Q14145 whole entry): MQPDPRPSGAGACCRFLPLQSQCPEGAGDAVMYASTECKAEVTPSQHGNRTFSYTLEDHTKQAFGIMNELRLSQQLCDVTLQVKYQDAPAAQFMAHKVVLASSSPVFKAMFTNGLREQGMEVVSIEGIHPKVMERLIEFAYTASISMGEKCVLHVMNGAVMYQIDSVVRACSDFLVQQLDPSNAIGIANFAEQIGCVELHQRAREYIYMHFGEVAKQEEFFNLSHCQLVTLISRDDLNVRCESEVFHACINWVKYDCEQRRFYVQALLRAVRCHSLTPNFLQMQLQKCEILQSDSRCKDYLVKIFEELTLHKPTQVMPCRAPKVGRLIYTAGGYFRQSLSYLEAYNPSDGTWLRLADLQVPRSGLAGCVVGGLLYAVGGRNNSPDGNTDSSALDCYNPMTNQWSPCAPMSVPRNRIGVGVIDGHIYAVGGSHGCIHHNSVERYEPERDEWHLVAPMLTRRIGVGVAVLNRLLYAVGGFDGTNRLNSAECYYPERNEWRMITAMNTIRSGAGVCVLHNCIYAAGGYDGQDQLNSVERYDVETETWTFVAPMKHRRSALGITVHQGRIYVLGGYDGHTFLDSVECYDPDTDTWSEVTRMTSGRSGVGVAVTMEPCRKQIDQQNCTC

T3 sequence (P04054 whole entry): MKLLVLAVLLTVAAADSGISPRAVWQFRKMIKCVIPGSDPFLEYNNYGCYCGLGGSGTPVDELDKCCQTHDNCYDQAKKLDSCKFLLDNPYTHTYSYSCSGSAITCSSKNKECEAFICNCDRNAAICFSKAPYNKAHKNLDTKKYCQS
T6 sequence (P11940 whole entry, the tested form may be a part): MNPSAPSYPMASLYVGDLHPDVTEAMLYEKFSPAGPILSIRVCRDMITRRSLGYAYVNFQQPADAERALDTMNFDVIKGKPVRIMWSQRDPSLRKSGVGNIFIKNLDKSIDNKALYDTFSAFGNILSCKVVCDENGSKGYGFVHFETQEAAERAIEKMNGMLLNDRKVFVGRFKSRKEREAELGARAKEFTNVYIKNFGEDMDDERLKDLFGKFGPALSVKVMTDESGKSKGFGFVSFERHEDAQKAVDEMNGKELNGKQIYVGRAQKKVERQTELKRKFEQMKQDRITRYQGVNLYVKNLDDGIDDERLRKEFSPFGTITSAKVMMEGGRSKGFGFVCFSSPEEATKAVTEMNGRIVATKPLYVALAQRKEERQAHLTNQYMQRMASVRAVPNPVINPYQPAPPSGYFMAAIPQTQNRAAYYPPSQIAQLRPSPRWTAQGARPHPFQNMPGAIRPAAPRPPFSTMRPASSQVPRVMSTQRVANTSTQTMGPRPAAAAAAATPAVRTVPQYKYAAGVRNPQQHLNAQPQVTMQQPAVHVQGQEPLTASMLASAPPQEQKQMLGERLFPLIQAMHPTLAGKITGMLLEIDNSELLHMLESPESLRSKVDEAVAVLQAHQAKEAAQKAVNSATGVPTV
T7 sequence (P09923 whole entry): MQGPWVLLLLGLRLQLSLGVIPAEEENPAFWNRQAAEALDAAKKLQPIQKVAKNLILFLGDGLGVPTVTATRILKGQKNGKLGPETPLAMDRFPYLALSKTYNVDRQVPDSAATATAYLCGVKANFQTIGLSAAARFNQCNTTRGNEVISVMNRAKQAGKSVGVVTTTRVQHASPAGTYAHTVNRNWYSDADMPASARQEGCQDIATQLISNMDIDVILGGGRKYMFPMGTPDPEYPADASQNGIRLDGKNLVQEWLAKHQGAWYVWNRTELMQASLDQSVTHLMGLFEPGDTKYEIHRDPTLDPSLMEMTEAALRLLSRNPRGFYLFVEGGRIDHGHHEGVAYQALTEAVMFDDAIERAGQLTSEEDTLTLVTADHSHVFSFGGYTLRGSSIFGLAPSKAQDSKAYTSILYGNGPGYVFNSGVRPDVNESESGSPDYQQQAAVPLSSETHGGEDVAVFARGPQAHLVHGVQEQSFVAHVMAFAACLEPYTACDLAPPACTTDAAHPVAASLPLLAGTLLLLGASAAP
Chain of Genome polyprotein (P29990 2492-3391 limits assumed): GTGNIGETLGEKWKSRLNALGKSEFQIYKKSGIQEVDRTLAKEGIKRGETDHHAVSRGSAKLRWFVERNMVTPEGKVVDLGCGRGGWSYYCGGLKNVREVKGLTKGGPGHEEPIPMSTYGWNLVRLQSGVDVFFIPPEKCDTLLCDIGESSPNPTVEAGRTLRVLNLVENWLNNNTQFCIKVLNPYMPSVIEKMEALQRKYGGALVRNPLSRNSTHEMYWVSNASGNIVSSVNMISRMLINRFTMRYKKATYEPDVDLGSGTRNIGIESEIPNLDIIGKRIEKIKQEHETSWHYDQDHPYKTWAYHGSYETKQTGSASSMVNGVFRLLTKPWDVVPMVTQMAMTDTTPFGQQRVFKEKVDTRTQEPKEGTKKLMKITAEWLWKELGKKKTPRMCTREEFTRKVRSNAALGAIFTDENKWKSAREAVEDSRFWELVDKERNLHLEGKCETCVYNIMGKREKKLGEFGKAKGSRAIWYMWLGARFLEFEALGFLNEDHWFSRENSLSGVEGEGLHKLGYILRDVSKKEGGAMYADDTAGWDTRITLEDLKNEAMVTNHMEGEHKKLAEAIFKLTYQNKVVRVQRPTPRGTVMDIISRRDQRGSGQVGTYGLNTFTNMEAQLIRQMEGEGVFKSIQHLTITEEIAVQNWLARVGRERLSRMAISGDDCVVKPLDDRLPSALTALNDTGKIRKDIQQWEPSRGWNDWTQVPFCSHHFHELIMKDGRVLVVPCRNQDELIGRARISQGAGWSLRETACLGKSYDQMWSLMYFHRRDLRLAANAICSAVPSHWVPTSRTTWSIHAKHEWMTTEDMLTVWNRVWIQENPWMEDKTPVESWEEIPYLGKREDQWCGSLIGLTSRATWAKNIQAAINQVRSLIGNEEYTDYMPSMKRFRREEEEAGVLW
Chain of Intestinal-type alkaline phosphatase (Mus musculus, UniProt P24822) (P24822 whole entry): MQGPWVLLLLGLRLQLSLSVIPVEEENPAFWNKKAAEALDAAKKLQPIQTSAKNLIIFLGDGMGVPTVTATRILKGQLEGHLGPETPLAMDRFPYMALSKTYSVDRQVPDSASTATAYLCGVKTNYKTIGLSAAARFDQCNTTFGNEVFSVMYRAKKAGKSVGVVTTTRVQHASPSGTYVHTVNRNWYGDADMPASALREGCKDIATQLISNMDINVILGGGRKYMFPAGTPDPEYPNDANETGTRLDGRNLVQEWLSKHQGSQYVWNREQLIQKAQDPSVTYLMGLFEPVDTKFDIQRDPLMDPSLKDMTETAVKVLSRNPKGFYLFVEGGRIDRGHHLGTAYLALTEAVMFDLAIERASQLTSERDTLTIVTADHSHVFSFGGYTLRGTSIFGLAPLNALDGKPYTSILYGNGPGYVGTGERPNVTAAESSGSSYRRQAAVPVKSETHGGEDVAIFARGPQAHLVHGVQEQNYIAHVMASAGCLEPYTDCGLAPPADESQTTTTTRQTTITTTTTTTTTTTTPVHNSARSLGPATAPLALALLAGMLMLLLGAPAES
Chain of Phosphomannomutase 2 (O15305 whole entry): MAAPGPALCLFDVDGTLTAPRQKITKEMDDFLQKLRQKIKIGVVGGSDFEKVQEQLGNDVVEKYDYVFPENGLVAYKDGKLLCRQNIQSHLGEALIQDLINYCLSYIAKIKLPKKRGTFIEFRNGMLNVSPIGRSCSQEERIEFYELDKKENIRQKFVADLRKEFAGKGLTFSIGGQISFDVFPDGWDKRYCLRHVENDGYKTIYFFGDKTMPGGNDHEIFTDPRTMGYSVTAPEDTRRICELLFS
Chain of Large T antigen (P03070 whole entry): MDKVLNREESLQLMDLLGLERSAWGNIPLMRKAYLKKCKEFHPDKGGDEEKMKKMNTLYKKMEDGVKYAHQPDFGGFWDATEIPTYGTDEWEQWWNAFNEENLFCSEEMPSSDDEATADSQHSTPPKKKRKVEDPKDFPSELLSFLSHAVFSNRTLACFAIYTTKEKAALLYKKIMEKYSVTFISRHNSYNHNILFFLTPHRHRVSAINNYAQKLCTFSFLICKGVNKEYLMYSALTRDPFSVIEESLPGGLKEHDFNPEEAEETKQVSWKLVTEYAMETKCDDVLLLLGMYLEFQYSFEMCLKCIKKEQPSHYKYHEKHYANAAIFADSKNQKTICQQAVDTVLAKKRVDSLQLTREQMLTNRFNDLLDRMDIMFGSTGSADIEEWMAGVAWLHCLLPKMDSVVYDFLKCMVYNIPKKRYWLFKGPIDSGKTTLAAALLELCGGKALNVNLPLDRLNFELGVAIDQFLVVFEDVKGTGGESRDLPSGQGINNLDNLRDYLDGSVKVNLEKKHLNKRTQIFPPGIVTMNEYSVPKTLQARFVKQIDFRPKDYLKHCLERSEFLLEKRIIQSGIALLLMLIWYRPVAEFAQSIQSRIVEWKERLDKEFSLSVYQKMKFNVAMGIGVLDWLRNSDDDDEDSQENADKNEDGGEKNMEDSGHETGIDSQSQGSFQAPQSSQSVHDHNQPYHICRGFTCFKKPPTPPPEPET

**Q.** For `CC(CC(=O)O)(CC(=O)O)C(=O)O`, which AC50 (Cytochrome P450 2C19) is on record?
**A.** inconclusive

**Q.** What about the AC50 (Cytochrome P450 2D6) of the same compound?
**A.** inconclusive

**Q.** Which AC50 [1] does the source give for `O=C(Nc1ccc(OCc2ccccc2)cc1)c1cccs1` here?
**A.** 1.98 µM (active)

**Q.** What about the AC50 [2] of the same compound?
**A.** 62.6 µM (active)

**Q.** With `COc1ccc(C)cc1/N=c1\ssnc1Cl` as the compound, how does the IC50 [3] read?
**A.** 22.5 µM (active)

**Q.** What about the IC50 (Phosphomannomutase 2) of the same compound?
**A.** > 100 µM (inactive)

**Q.** Which EC50 (cells [4]) does the source give for `Cc1cc(/C=N/n2c(COc3ccccc3)nc3ccccc3c2=O)c(O)c([N+](=O)[O-])c1` here?
**A.** > 350 µM (not active)

**Q.** What about the EC50 (cells [5]) of the same compound?
**A.** 31.7 µM (active)

**Q.** And the AC50 [1]?
**A.** 20.9 µM (active)

**Q.** What about the IC50 (Cysteine protease ATG4B [6]) of the same compound?
**A.** 17.2 µM (active)

**Q.** And the IC50 (Phospholipase A2 [7])?
**A.** 10.5 µM (active)

**Q.** What about the IC50 (Phospholipase A2 [8]) of the same compound?
**A.** 13.1 µM (active)

**Q.** What about the IC50 (Cysteine protease ATG4B [9]) of the same compound?
**A.** 22.8 µM (inactive)

**Q.** With `CC(/C=C\c1cccnc1)=C/C(=O)O` as the compound, how does the EC50 [10] read?
**A.** 11 µM (active)

**Q.** With `O=S(=O)(c1ccccc1)N1CCC[C@@]2(CCN(Cc3cc(C(F)(F)F)cc(C(F)(F)F)c3)C2)C1` as the compound, how does the AC50 (Cytochrome P450 1A2) read?
**A.** inconclusive

**Q.** Which results are given for `O=C1CCC(=O)N(O)CCCCCNC(=O)CCC(=O)N(O)CCCCNC(=O)CCC(=O)N(O)CCCCCN1` [DESMETHYLENYLNOCARDAMINE]?
**A.** IC50 (Exodeoxyribonuclease V): > 119 µM (inactive); IC50 [11]: > 119 µM (inactive)

**Q.** Which IC50 (Large T antigen) does the source give for `O=C1NC(=O)C(=Cc2csc3ccccc23)C(=O)N1` here?
**A.** 59.7 µM (active)

**Q.** What about the AC50 [12] of the same compound?
**A.** 6.34 µM (active)

**Q.** And the IC50 (Genome polyprotein)?
**A.** 26.9 µM (active)

**Q.** And the IC50 [13]?
**A.** > 66 µM (inactive)

**Q.** What about the IC50 [14] of the same compound?
**A.** > 66 µM (inactive)

**Q.** Which results are given for `C/C(=N/Nc1ccccc1[N+](=O)[O-])c1ccc([N+](=O)[O-])cc1`?
**A.** IC50 [15]: > 100 µM (inactive); IC50 [16]: 77.3 µM (active); IC50 [17]: 69.6 µM (inactive); IC50 [18]: > 100 µM (inactive)

**Q.** Which AC50 (Keap1/Nrf2) does the source give for `NC(=O)c1cc2ccc(O)cc2o/c1=N\Cc1ccccc1` here?
**A.** 18.7 µM (active)
